Experimental data taken from patent US9724351B2, “Compounds for the treatment of paramoxyvirus viral infections” (priority 2012, dated 2017).

What was measured:
[1] = test system: Respiratory Syncytial Virus (RSV) long strain (ATCC#VR-26); test: RSV Antiviral Assay (CPE reduction assay); format: cell-based; conditions: human respiratory syncytial virus, 120 h; HEp-2 cells infected with RSV long strain, 5 days, CCK-8 readout; bins (Table 2: less than 1 μM; Table 3: equal to or higher than 1 μM and less than 50 μM); read-out: 50% effective concentration (EC50)
Method in brief: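 Cytopathic-effect protection measured after 5 days at 37 °C, 5% CO2 via CCK-8 dehydrogenase readout at 450 nm (630 nm reference), EC50 regressed from mean O.D. Host HEp-2 cells received RSV long strain at 100 TCID50/well; compound 9-point ⅓ series starting 100 μM or 1 μM, 1% DMSO, duplicate wells.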

[2] = Cytotoxicity Determination; format: cell-based; conditions: human, HEp-2 cells, without addition of virus, CCK-8 readout, bins (Table 4: greater than 100 μM; Table 5: equal to or less than 100 μM and greater than 10 μM), read-out: 50% cytotoxicity concentration (CC50)
Method in brief: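 CC50 was derived from CCK-8 optical density after a 3-4 h reagent incubation. Before that, cells without virus had been treated for 5 days at 37 °C, 5% CO2 with compound at seven ½-step final concentrations from 100 μM, in duplicate wells.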

Row | Structure (SMILES) | EC50 [1] | CC50 at 5 days [2]
1 | COc1cc(C(=O)NCC(=O)c2ccc(OC)c(-c3ccc(Cl)c(F)c3)n2)ccc1OCCO [Compound 1612] | < 1 µM | > 100 µM
2 | COc1ccc(C(=O)NCC(=O)N/N=C(\C)c2c(C)sc3ccccc23)cc1OC [Compound 413] | 1 to 50 µM | 10 to 100 µM
3 | COc1cc(C(=O)NCC(=O)c2cccc(-c3csc4c(F)cccc34)n2)ccc1OCC(N)=O [Compound 1247] | < 1 µM | 10 to 100 µM
4 | COc1ccc(C(=O)NCC(=O)c2ccc(OC)c(-c3cn[nH]c3)n2)cc1OC [Compound 1533] | 1 to 50 µM | > 100 µM
5 | COc1cc(Cl)c(C(=O)NCC(=O)N/N=C(\C)c2csc3ccccc23)cc1OC [Compound 482] | 1 to 50 µM | 10 to 100 µM
6 | COc1ccc(C(=O)NCC(=O)N/N=C2\CCOc3ccccc32)cc1OC [Compound 452] | 1 to 50 µM | > 100 µM
7 | COc1ccc(C(=O)NCC(=O)c2ccc(OC)c(-c3cnoc3)n2)cc1OC [Compound 1510] | 1 to 50 µM | 10 to 100 µM
8 | C/C(=N\NC(=O)CNC(=O)c1ccc2c(c1)OCCO2)c1csc2ccccc12 [Compound 471] | 1 to 50 µM | > 100 µM
9 | CCCC/C(=N/NC(=O)CNC(=O)c1ccc(OCCO)c(OC)c1)c1csc2c(F)cccc12 [Compound 602] | < 1 µM | > 100 µM
10 | COc1cc(C(=O)NCC(=O)c2cn(C(C)C)cc(-c3csc4c(F)cccc34)c2=O)ccc1OCCO [Compound 2200] | < 1 µM | > 100 µM
11 | COc1cc(C(=O)NCC(=O)c2ccc(OC)c(-c3ccc(OC(F)(F)F)cc3)n2)ccc1OCCO [Compound 1602] | < 1 µM | > 100 µM
12 | COCC/C(=N\NC(=O)CNC(=O)c1ccc(OC)c(OC)c1O)c1csc2c(F)cccc12 [Compound 300] | < 1 µM | 10 to 100 µM
13 | C/C(=N\NC(=O)CNC(=O)c1ccc2c(c1)OC(F)(F)O2)c1csc2ccccc12 [Compound 474] | 1 to 50 µM | 10 to 100 µM
14 | COc1ccc(C(=O)NCC(=O)N2CCCN(c3csc4c(F)cccc34)C2=O)cc1OC [Compound 2800] | 1 to 50 µM | 10 to 100 µM
15 | CCOc1ccc(C(=O)NCC(=O)N/N=C/c2c[nH]c3c(F)cccc23)cc1OC [Compound 400-27] | 1 to 50 µM | > 100 µM
16 | COc1cc(C(=O)NCC(=O)c2ccc(OC)c(-c3n[nH]c4ccccc34)n2)ccc1OCCO [Compound 1346] | 1 to 50 µM | > 100 µM
17 | COc1ccc(C(=O)NCC(=O)c2ccc(OC)c(-c3c[nH]nc3C)n2)cc1OC [Compound 1541] | 1 to 50 µM | > 100 µM
18 | COc1ccc(C(=O)NCC(=O)c2ccc3ccccc3n2)cc1OC [Compound 1701] | 1 to 50 µM | > 100 µM
19 | COc1cc(C(=O)CNC(=O)c2ccc(OCCO)c(OC)c2)nc(-c2csc3c(F)cccc23)c1 [Compound 1213] | < 1 µM | > 100 µM
20 | COc1cc(C(=O)N[C@@H](CCCCN)C(=O)c2ccc(OC)c(-c3csc4c(F)cccc34)n2)ccc1OCCO [Compound 1835] | < 1 µM | 10 to 100 µM

Row | Structure (SMILES) | EC50 [1] | CC50 at 5 days [2]
21 | COc1cc(C(=O)NCC(=O)c2ccc(OC)c(-c3csc4c(F)cccc34)n2)ccc1OCCF [Compound 2625] | < 1 µM | > 100 µM
22 | COc1cc(C(=O)NCC(=O)c2cccc(-c3csc4c(F)cccc34)n2)ccc1OCCCCO [Compound 1223] | 1 to 50 µM | 10 to 100 µM
23 | COc1cc(C(=O)NC(CCO)C(=O)c2ccc(OC)c(-c3ccc(F)c(Cl)c3)n2)ccc1OCCO (centres unmarked) [Compound 1837] | < 1 µM | 10 to 100 µM
24 | COc1ccc(C(=O)NCC(=O)N/N=C2\CCNc3ccccc32)cc1OC [Compound 447] | 1 to 50 µM | > 100 µM
25 | COc1cc(C(=O)NCC(=O)c2ccc(OC)c(-c3ccc(F)c(Cl)c3)n2)ccc1OCC1CC1 [Compound 2638] | < 1 µM | 10 to 100 µM
26 | COc1ccc(C(=O)NCC(=O)c2ccc(N(C)C)c(-c3csc4c(F)cccc34)n2)cc1OC [Compound 2101] | 1 to 50 µM | > 100 µM
27 | COc1ccc(C(=O)NCC(=O)N/N=C(\CCCC(C)C)c2csc3ccccc23)cc1OC [Compound 489] | 1 to 50 µM | 10 to 100 µM
28 | COc1cc(-c2nc(C(=O)CNC(=O)c3ccc(OCCO)c(OC)c3)ccc2OC)ccc1F [Compound 1329] | < 1 µM | > 100 µM
29 | COc1ccc(C(=O)NC(C)(C)C(=O)c2cccc(-c3csc4c(F)cccc34)n2)cc1OC [Compound 1340] | 1 to 50 µM | > 100 µM
30 | COc1cc(C(=O)NCC(=O)c2ccc(OC)c(-c3ccnc(Cl)c3)n2)ccc1OCCO [Compound 1611] | 1 to 50 µM | > 100 µM
31 | COc1cc(C(=O)NCC(=O)N/N=C(\C)c2csc3ccccc23)ccc1OCCO [Compound 600] | < 1 µM | > 100 µM
32 | COc1cc(C(=O)NCC(=O)c2ccc(OC)c(-c3ccc(F)c(Br)c3)n2)ccc1OCCO [Compound 1622] | < 1 µM | > 100 µM
33 | COc1cc(C(=O)N[C@@H](CO)C(=O)c2ccc(OC)c(-c3ccc(F)c(Cl)c3)n2)ccc1OCCO [Compound 1832] | < 1 µM | 10 to 100 µM
34 | COc1ccc(C(=O)NCC(=O)c2cc(C(C)C)cc(-c3csc4c(F)cccc34)n2)cc1OC [Compound 1200] | < 1 µM | > 100 µM
35 | COc1cc(C(=O)NCC(=O)c2cc(N(C)C)cc(-c3csc4c(F)cccc34)n2)ccc1OCCO [Compound 1245] | < 1 µM | > 100 µM
36 | COc1cc(C(=O)NCC(=O)c2cccc(-c3csc4c(F)cccc34)n2)ccc1OC1CCOCC1 [Compound 1224] | 1 to 50 µM | > 100 µM
37 | COc1ccc(C(=O)NCC(=O)c2ccc(OC)c(-c3ccc(N4CCCCC4)cc3)n2)cc1OC [Compound 1524] | 1 to 50 µM | > 100 µM
38 | COc1cc(C(=O)NCC(=O)c2ccc(OC)c(-c3ccc(F)c(Cl)c3)n2)ccc1OCc1cnc[nH]1 [Compound 1332] | < 1 µM | 10 to 100 µM
39 | CCNc1ccc(C(=O)NCC(=O)N/N=C(\C)c2csc3ccccc23)cc1 [Compound 501] | 1 to 50 µM | 10 to 100 µM
40 | COc1ccc(C(=O)N2CCCC2C(=O)c2ccc(OC)c(-c3csc4c(F)cccc34)n2)cc1OC (centres unmarked) [Compound 1822] | 1 to 50 µM | 10 to 100 µM

Row | Structure (SMILES) | EC50 [1] | CC50 at 5 days [2]
41 | COc1ccc(C(=O)NCC(=O)N/N=C/c2c(C)[nH]c3ccccc23)cc1OC [Compound 403] | 1 to 50 µM | > 100 µM
42 | COc1ccc(C(=O)NC(CO)C(=O)c2ccc(OC)c(-c3csc4c(F)cccc34)n2)cc1OC (centres unmarked) [Compound 1816] | < 1 µM | > 100 µM
43 | COc1cc(C(=O)NC(C)C(=O)c2ccc(OC)c(-c3ccc(F)c(Cl)c3)n2)ccc1OCCO (centres unmarked) [Compound 1839] | < 1 µM | 10 to 100 µM
44 | CCCC/C(=N\NC(=O)CNC(=O)c1ccc(OCC)c(OC)c1)c1csc2ccccc12 [Compound 488] | < 1 µM | > 100 µM
45 | COc1ccc(C(=O)NCC(=O)c2ccnc(-c3csc4c(F)cccc34)n2)cc1OC [Compound 840] | 1 to 50 µM | > 100 µM
46 | COc1cc(C(=O)NC(C)C(=O)c2ccc(OC)c(-c3csc4c(F)cccc34)n2)ccc1OCCO (centres unmarked) [Compound 1808] | < 1 µM | 10 to 100 µM
47 | CCOc1ccc(C(=O)NCC(=O)Nc2nc3cc(Cl)ccc3n2CCOC)cc1OC [Compound 911] | 1 to 50 µM | 10 to 100 µM
48 | CCOc1cc(-c2nc(C(=O)CNC(=O)c3ccc(OC)c(OC)c3)ccc2OC)cc2ccccc12 [Compound 1509] | 1 to 50 µM | > 100 µM
49 | CCOc1ccc(C(=O)NCC(=O)N/N=C/c2coc3c(F)cccc23)cc1OC [Compound 400-28] | 1 to 50 µM | > 100 µM
50 | COc1cc(C(=O)NCC(=O)c2ccc(OC)c(-c3ccc(F)c(F)c3)n2)ccc1OCCO [Compound 1618] | < 1 µM | > 100 µM
51 | COc1ccc(C(=O)NCC(=O)c2ccc(OC)c(-c3ccc(C#N)cc3)n2)cc1OC [Compound 1505] | < 1 µM | > 100 µM
52 | COc1cc(C(=O)N[C@@H](CCO)C(=O)c2ccc(OC)c(-c3csc4c(F)cccc34)n2)ccc1OCCO [Compound 1803] | < 1 µM | 10 to 100 µM
53 | COc1ccc(C(=O)NCC(=O)c2ncc(-c3csc4c(F)cccc34)[nH]2)cc1OC [Compound 1352] | 1 to 50 µM | 10 to 100 µM
54 | COc1ccc(C(=O)NCC(=O)N/N=C(\C)c2ccnc3ccccc23)cc1OC [Compound 449] | 1 to 50 µM | > 100 µM
55 | COc1ccc(C(=O)NCC(=O)N/N=C/c2cccc3ccccc23)cc1OC [Compound 402] | 1 to 50 µM | 10 to 100 µM
56 | COCC/C(=N\NC(=O)CNC(=O)c1ccc(OC2COC2)c(OC)c1)c1csc2c(F)cccc12 [Compound 514A] | < 1 µM | > 100 µM
57 | COc1ccc(C(=O)N2CCCCC2C(=O)c2ccc(OC)c(-c3csc4c(F)cccc34)n2)cc1OC (centres unmarked) [Compound 1800] | 1 to 50 µM | 10 to 100 µM
58 | COc1ccc(C(=O)NCC(=O)c2cc(C(C)(C)C)cc(-c3csc4c(F)cccc34)n2)cc1OC [Compound 1252] | < 1 µM | > 100 µM
